Like-named read-outs stand apart in the source and are kept apart here.
How the values were obtained:
calu-3 cells = details: depending on the concentration; cited from earlier work
[1] = system: calu-3 cells (confluent monolayer); details: for TEER after 2 h Average / TEER after 24 h Average: human
[2] = system: calu-3 cells (confluent monolayer); experiment: Trans-epithelial electrical resistance (TEER) of calu-3 monolayer; details: for TEER [% of 0 hours]: positive control 0.1%

CC(O)CO (stereo not drawn) [Propylene glycol, propylene glycol]
effect on calu-3 cells (calu-3 cells): kills calu-3 cells | effect on the integrity of the calu-3 monolayer [1]: significant and largely non-reversible damage | TEER after 2 h Average ([1]; 0.1 %): 116% | TEER after 2 h Average ([1]; 0.5 %): 120% | TEER after 2 h Average ([1]; 5 %): 36% | TEER after 2 h Average ([1]; 10 %): 14% | TEER after 24 h Average ([1]; 0.1 %): 83% | TEER after 24 h Average ([1]; 0.5 %): 83% | TEER after 24 h Average ([1]; 5 %): 75% | TEER after 24 h Average ([1]; 10 %): 43%

CCCCCCCCCCCCOS(=O)(=O)[O-].[Na+] [SDS, sodium dodecyl sulphate]
TEER after 2 h Average ([2]; Conc. 0.001 %): 114% | TEER after 24 h Average ([2]; Conc. 0.001 %): 107% | TEER after 2 h Average ([2]; Conc. 0.010 %): 7% | TEER after 24 h Average ([2]; Conc. 0.010 %): 2% | TEER after 2 h Average ([2]; Conc. 0.100 %): 3% | TEER after 24 h Average ([2]; Conc. 0.100 %): 2% | effect on the integrity of the calu-3 monolayer ([2]; conclusion from TEER values): significant and largely non-reversible damage | TEER [% of 0 hours] ([2]; time 0 h): 20% | TEER [% of 0 hours] ([2]; time 1 h): 19% | TEER [% of 0 hours] ([2]; time 2 h): 19% | TEER [% of 0 hours] ([2]; time 24 h): 11%

Source: patent US9724382B2, “Pharmaceutical compositions comprising cyclosporin” (PARI Pharma GmbH, priority 2005, dated 2017)
